Measurements as given in patent EP1143970B1, “PYRIDINE COMPOUNDS, USE AND PREPARATION THEREOF” (priority 1999, dated 2000).
Where two headings read alike, the source gives them in different places. Marks after values point to notes of the source that are not given here.

Experiments:
[1] = Anti-cancer activity (test not described)
[2] = test system: P388/0
[3] = test system: P388/BCNU; test: Antitumor activity against IP-implanted P388/BCNU leukemia in mice
[4] = test system: P388/CPA; test: Antitumor activity against IP-implanted P388/CPA leukemia in mice; type: in vivo, murine
[5] = test system: human MX-1 mammary tumor; test: In vivo antitumor activity against s.c.-implanted human MX-1 mammary tumor xenograft; settings: sc MX-1
Text: (§1) The antitumor activity data of the acyl derivatives of DM-PEN vs MX-1 human mammary tumor xenograft implanted s.c. or i.c. with intraperitoneal (i.p.) or oral drug treatment are shown in Table 1 below.

[6] = test system: ZR-75-1 mammary; test: In vivo antitumor activity against s.c.-implanted human tumor xenograft ZR-75-1; settings: sc ZR-75-1
[7] = test system: U251 CNS; test: In vivo antitumor activity against s.c.-implanted human tumor xenograft U251; settings: sc U251; IP 90 mg/kg/dose, Days 19-23
[8] = test system: P388/L-PAM; test: Antitumor activity against IP-implanted P388/L-PAM leukemia in mice
[9] = test system: human MX-1 mammary tumor; test: In vivo antitumor activity against i.c.-implanted human MX-1 mammary tumor xenograft; set-up: species or system mouse; settings: for Median % ILS: I.C.-implanted MX-1, optimal doses (LD10 or less), schedule QD1-5, I.P., based on dying mice only
Text: as §1
Table 2Comparative Activity of PEN, DM-PEN and DM-ACYL-PEN Against […] Human MX-1 Mammary Tumor at Optimal Doses (LD10 or Less) and Schedule (QD1-5) Administered I.P.

[10] = Cytotoxicity in vitro; settings: without metabolism
[11] = 14C-penclomedine, tumor-bearing rats; cited from earlier work
[12] = rats; muscle tremors, incoordination, convulsions and reduced activity; cited from earlier work
[13] = P388/0, IP 20.0 MG/KG/DOSE, Q1D X 1 (1)
[14] = IP 30.0 MG/KG/DOSE, Q1D X 1 (1)
[15] = IP 60.0 MG/KG/DOSE, Q1D X 5 (1)
[16] = IP 90.0 MG/KG/DOSE, Q1D X 5 (1)
[17] = IP 135.0 MG/KG/DOSE, Q1D X 5 (1)
[18] = highest nontoxic doses evaluated, difference to DM-PEN
[19] = highest nontoxic doses evaluated, difference to PEN
[20] = P388/0, IP 60.0 MG/KG/DOSE, Q1D X 5 (1)
[21] = P388/0, IP 90.0 MG/KG/DOSE, Q1D X 5 (1)
[22] = P388/0, IP 135.0 MG/KG/DOSE, Q1D X 5 (1)
[23] = P388/L-PAM, IP 60.0 MG/KG/DOSE, Q1D X 5 (1)
[24] = P388/L-PAM, IP 90.0 MG/KG/DOSE, Q1D X 5 (1)
[25] = P388/L-PAM, IP 135.0 MG/KG/DOSE, Q1D X 5 (1)

## CCOc1nc(C(Cl)(Cl)Cl)c(Cl)c(OCC)c1Cl [3,5-dichloro-4,6-diethoxy-2-(trichloromethyl)pyridine]
[1]
  anti-cancer activity (in words): show active anti-cancer activity

## CCOc1c(Cl)c(OC)nc(C(Cl)(Cl)Cl)c1Cl [3,5-dichloro-4-ethoxy-6-methoxy-2-(trichloromethyl)pyridine]
[1]
  anti-cancer activity (in words): show active anti-cancer activity

## O=NN(CCCl)C(=O)NCCCl [BCNU, carmustine]
[2]; [13]
  50-DAY SURV./ TOTAL: 3 / 6
  % ILS: +145%
  APPROX. NET LOG10 CHANGE IN TUMOR BURDEN AT END OF Rx: ca-6.8
[2]; P388/0, IP 30.0 MG/KG/DOSE, Q1D X 1 (1)
  50-DAY SURV./ TOTAL: 6 / 6
[3]; IP 20.0 MG/KG/DOSE, Q1D X 1 (1)
  50-DAY SURV./ TOTAL: 0 / 6
[3]; [14]
  50-DAY SURV./ TOTAL: 0 / 6
  MEDIAN DAY OF DEATH: 6.5

## O=P1(N(CCCl)CCCl)NCCCO1 (stereo not shown) [CPA, cyclophosphamide]
[4]; IP 175.0 MG/KG/DOSE, Q1D X 1 (1)
  50-DAY SURV./ TOTAL: 0 / 6
[4]; IP 265.0 MG/KG/DOSE, Q1D X 1 (1)
  50-DAY SURV./ TOTAL: 0 / 6
[2]; P388/0, IP 175.0 MG/KG/DOSE, Q1D X 1 (1)
  50-DAY SURV./ TOTAL: 1 / 6
[2]; P388/0, IP 265.0 MG/KG/DOSE, Q1D X 1 (1)
  50-DAY SURV./ TOTAL: 6 / 6

## COc1nc(C(Cl)(Cl)Cl)c(Cl)c(OC(C)=O)c1Cl [DM-A-PEN]
[5]; IP 60 mg/kg/dose, Days 15-19
  Lethality at the stated dosage (LD level): 60 (LD20)
[6]; IP 60 mg/kg/dose, Days 10-14
  T-C: 10.6 days
[6]; IP 90 mg/kg/dose, Days 8-12
  T-C: 14.1 days
[7]
  T-C: 15.7 days
[4]; [15]
  50-DAY SURV./ TOTAL: 0 / 6
[4]; [16]
  50-DAY SURV./ TOTAL: 0 / 6
  % ILS: +66%
  MEDIAN DAY OF DEATH: 20.5
[4]; [17]
  50-DAY SURV./ TOTAL: 0 / 6
  % ILS: +127%
[4]; [18]
  more active than DM-PEN, log cell kill: 4.6 log cell kill
[4]; [19]
  more active than PEN, log cell kill: 7.4 log cell kill
[2]; [20]
  50-DAY SURV./ TOTAL: 0 / 6
[2]; [21]
  50-DAY SURV./ TOTAL: 0 / 6
  MEDIAN DAY OF DEATH: 21.5
[2]; [22]
  50-DAY SURV./ TOTAL: 0 / 6
  Lethality at the stated dosage (LD level): LD33
  MEDIAN DAY OF DEATH: 28.5
[2]; P388/0, highest nontoxic doses evaluated, difference to PEN
  more active than PEN, log cell kill: 0.4 log cell kill
[2]; P388/O, highest nontoxic doses evaluated, difference to DM-PEN
  more active than DM-PEN, log cell kill: 1.9 log cell kill
[3]; [15]
  50-DAY SURV./ TOTAL: 1 / 6
[3]; [16]
  50-DAY SURV./ TOTAL: 0 / 6
[3]; [17]
  50-DAY SURV./ TOTAL: 0 / 6
  % ILS: +133%
  Lethality at the stated dosage (LD level): LD17
[3]; [18]
  more active than DM-PEN, log cell kill: 1.5 log cell kill
[3]; [19]
  more active than PEN, log cell kill: 3.5 log cell kill
[8]; [23]
  50-DAY SDRV./ TOTAL: 0 / 6
[8]; [24]
  50-DAY SDRV./ TOTAL: 0 / 6
[8]; [25]
  50-DAY SDRV./ TOTAL: 0 / 6
  Lethality at the stated dosage (LD level): LD17
[8]; P388/L-PAM, difference to PEN or DM-PEN
  more active than PEN or DM-PEN, log cell kill: 0.2-0.3 log cell kill

## COc1nc(C(Cl)(Cl)Cl)c(Cl)c(OC(=O)c2ccccc2)c1Cl [DM-B-PEN]
[9]; ic MX-1, IP 135 mg/kg/dose, Days 1-5
  Tumor-Free-Surv/Total: . 0/5

## COc1nc(C(Cl)(Cl)Cl)c(Cl)c(OC(=O)c2ccco2)c1Cl [DM-F-PEN]
[9]
  Median % ILS: 108^c %

## COc1nc(C(Cl)(Cl)Cl)c(Cl)c(OC(=O)CI)c1Cl [DM-IA-PEN]
[5]; IP 60 mg/kg/dose, Days 12-16
  Lethality at the stated dosage (LD level): 60 (LD40)

## COc1nc(C(Cl)(Cl)Cl)c(Cl)c(OC(=O)c2ccncc2)c1Cl [DM-IN-PEN]
[5]; IP 90 mg/kg/dose, Days 12-16
  Lethality at the stated dosage (LD level): 90 (LD20)

## COCC(=O)Oc1c(Cl)c(OC)nc(C(Cl)(Cl)Cl)c1Cl [DM-MA-PEN]
[9]
  Median % ILS: 126^a %
[9]; ic MX-1, IP 90 mg/kg/dose, Days 1-5
  Median % ILS (dying mice only): +126%

## CCCCCCCC(=O)Oc1c(Cl)c(OC)nc(C(Cl)(Cl)Cl)c1Cl [DM-O-PEN]
[9]
  Median % ILS: 121^b %

## COc1nc(C(Cl)(Cl)Cl)c(Cl)c(O)c1Cl [DM-PEN, 3,5-dichloro-2-methoxy-4-hydroxy-6-(trichloromethyl)pyridine]
[9]
  Median % ILS: 60%
[4]; [15]
  50-DAY SURV./ TOTAL: 0 / 6
[4]; [16]
  50-DAY SURV./ TOTAL: 0 / 6
[4]; [17]
  50-DAY SURV./ TOTAL: 0 / 6
[2]; [20]
  50-DAY SURV./ TOTAL: 0 / 6
  MEDIAN DAY OF DEATH: 18.0
[2]; [21]
  50-DAY SURV./ TOTAL: 0 / 6
  MEDIAN DAY OF DEATH: 18.0
[2]; [22]
  50-DAY SURV./ TOTAL: 0 / 6
  MEDIAN DAY OF DEATH: 8.6
[10]
  cytotoxic agents in vitro (in words): inactive
[3]; [15]
  50-DAY SURV./ TOTAL: 0 / 6
  APPROX. NET LOG10 CHANGE IN TUMOR BURDEN AT END OF Rx: +0.6
[3]; [16]
  50-DAY SURV./ TOTAL: 0 / 6
  % ILS: +65%
[3]; [17]
  50-DAY SURV./ TOTAL: 0 / 6
  Lethality at the stated dosage (LD level): LD17
[8]; [23]
  50-DAY SDRV./ TOTAL: 0 / 8
  APPROX. NET LOG10 CHANGE IN TUMOR BURDEN AT END OF Rx: +1.5
  MEDIAN DAY OF DEATH: 13.6
[8]; [24]
  50-DAY SDRV./ TOTAL: 0 / 6
  APPROX. NET LOG10 CHANGE IN TUMOR BURDEN AT END OF Rx: +1.5
[8]; [25]
  50-DAY SDRV./ TOTAL: 0 / 6
  APPROX. NET LOG10 CHANGE IN TUMOR BURDEN AT END OF Rx: +1.5
  Lethality at the stated dosage (LD level): 1.033

## COc1nc(C(Cl)(Cl)Cl)c(Cl)c(OC(=O)c2cccs2)c1Cl [DM-TC-PEN]
[9]
  Median % ILS: 100^d %

## N[C@@H](Cc1ccc(N(CCCl)CCCl)cc1)C(=O)O [L-PAM, melphalan]
[2]; mouse, in vivo, ip, 15 mg/kg
  50-DAY SURV./ TOTAL: 6 / 6
[2]; mouse, in vivo, ip, 20 mg/kg
  50-DAY SURV./ TOTAL: 6 / 6
  APPROX. NET LOG10 CHANGE IN TUMOR BURDEN AT END OF Rx: ca -6.6
[8]; mouse, in vivo, ip, 15 mg/kg
  50-DAY SDRV./ TOTAL: 0 / 6
  APPROX. NET LOG10 CHANGE IN TUMOR BURDEN AT END OF Rx: -1.6
  MEDIAN DAY OF DEATH: 16.0
[8]; mouse, in vivo, ip, 20 mg/kg
  50-DAY SDRV./ TOTAL: 0/6
  APPROX. NET LOG10 CHANGE IN TUMOR BURDEN AT END OF Rx: -1.6
  MEDIAN DAY OF DEATH: 16.0

## COc1nc(C(Cl)(Cl)Cl)c(Cl)c(OC)c1Cl [PEN, 3,5-dichloro-2,4-dimethoxy-6-(trichloromethyl)pyridine]
[9]
  Median % ILS: 88%
[4]; [15]
  50-DAY SURV./ TOTAL: 0 / 6
  MEDIAN DAY OF DEATH: 10.5
[4]; [16]
  50-DAY SURV./ TOTAL: 0 / 6
  MEDIAN DAY OF DEATH: 10.5
[4]; [17]
  50-DAY SURV./ TOTAL: 0 / 6
  MEDIAN DAY OF DEATH: 10.5
[2]; [20]
  50-DAY SURV./ TOTAL: 0 / 6
  MEDIAN DAY OF DEATH: 14.5
[2]; [21]
  50-DAY SURV./ TOTAL: 0 / 6
  APPROX. NET LOG10 CHANGE IN TUMOR BURDEN AT END OF Rx: -0.6
[2]; [22]
  50-DAY SURV./ TOTAL: 0 / 6
  APPROX. NET LOG10 CHANGE IN TUMOR BURDEN AT END OF Rx: -4.6
[11]
  radioactive species in the brain: predominant radioactive species in the brain was penclomedine
[12]
  neurotoxicity: Dose related neurotoxicity
[10]
  cytotoxic agents in vitro (in words): inactive
[3]; [15]
  50-DAY SURV./ TOTAL: 0 / 6
[3]; [16]
  50-DAY SURV./ TOTAL: 0 / 6
[3]; [17]
  50-DAY SURV./ TOTAL: 0 / 6
  MEDIAN DAY OF DEATH: 11.5
[8]; [23]
  50-DAY SDRV./ TOTAL: 0 / 6
[8]; [24]
  50-DAY SDRV./ TOTAL: 0 / 6
  APPROX. NET LOG10 CHANGE IN TUMOR BURDEN AT END OF Rx: +1.5
[8]; [25]
  50-DAY SDRV./ TOTAL: 0 / 6
  APPROX. NET LOG10 CHANGE IN TUMOR BURDEN AT END OF Rx: +1.5
